From US20070167408A1, “NOVEL ALKYL PHOSPHOLIPID DERIVATIVES WITH REDUCED CYTOTOXICITY AND USES THEREOF” (ZENTARIS GmbH, priority 2005, published 2007)
Values after ≈ are worked out from the molar mass of the structure shown.

Key:
Format in all cases: cell-based
[1] = tested on: Aspergillus fumigatus ATCC 204305; assay: Anti-fungal broth microdilution (MIC), fungus A; conditions: filamentous protocol, more than 50% growth inhibition, 48 to 72 h
Procedure, shortened: (§1)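 Broth microdilution per NCCLS M27-A (yeasts) and M38-A (filamentous fungi), compounds tested from 64 down to 0.125 μg/ml against 10^6 CFU/ml inocula. For filamentous fungi, MIC read after 48 to 72 h at 35° C as the concentration giving more than 50% visible growth inhibition.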

[2] = tested on: Aspergillus fumigatus 040-200167; assay: Anti-fungal broth microdilution (MIC), fungus C; conditions: filamentous protocol, more than 50% growth inhibition, 48 to 72 h
Procedure, shortened: as §1

[3] = tested on: Candida albicans ATCC 10231; assay: Anti-fungal broth microdilution (MIC), fungus D; conditions: yeast protocol, more than 80% inhibition, 48 h
Procedure, shortened: as §1

[4] = tested on: Candida albicans ATCC 90028; assay: Anti-fungal broth microdilution (MIC), fungus E; conditions: yeast protocol, more than 80% inhibition, 48 h
Procedure, shortened: as §1

[5] = tested on: Candida albicans TS3; assay: Anti-fungal broth microdilution (MIC), fungus F; conditions: yeast protocol, more than 80% inhibition, 48 h
Procedure, shortened: as §1

[6] = tested on: Candida parapsilosis ATCC 22019; assay: Anti-fungal broth microdilution (MIC), fungus G; conditions: yeast protocol, more than 80% inhibition, 48 h
Procedure, shortened: as §1

[7] = tested on: Cryptococcus neoformans ATCC 90112; assay: Anti-fungal broth microdilution (MIC), fungus H; conditions: yeast protocol, more than 80% inhibition, 48 h
Procedure, shortened: as §1

[8] = tested on: Cryptococcus neoformans H99; assay: Anti-fungal broth microdilution (MIC), fungus I; conditions: yeast protocol, more than 80% inhibition, 48 h
Procedure, shortened: as §1

[9] = tested on: Cryptococcus gattii ATCC 32608; assay: Anti-fungal broth microdilution (MIC), fungus J; conditions: yeast protocol, more than 80% inhibition, 48 h
Procedure, shortened: as §1

[10] = tested on: Trypanosoma brucei rhodesiense (strain STIB900); assay: In vitro drug activity assay, protozoon B; conditions: bloodstream form trypomastigotes, 72 hours, Alamar Blue
Experimental: In vitro activity of selected compounds of the invention against different protozoa was assessed as follows.
Trypanosoma brucei rhodesiense STIB900 bloodstream form trypomastigotes were maintained in HMI-18 medium (Hirumi H, Hirumi K, J Parasitol. 1989, 75(6):985-989) with 15% heat-inactivated fetal calf serum at 37° C., 5% CO2, humidified atmosphere. Trypomastigotes were washed and resuspended in fresh medium at a concentration of 2×10^5 mL. Test compounds were given to the trypomastigotes and plates were incubated for 72 hours at 37° C., 5% CO2, humidified atmosphere. At 72 hours the plates were assessed microscopically before Alamar Blue was added (Raz et al., Acta Trop. 1997, 68: 139-147). Plates were read after 5 to 6 hours at EX/EM 530/585 nm with a filter cutoff at 550 nm. ED50 values were calculated with Msxlfit (IDBS).
The following protozoa were assessed: • A) Trypanosoma cruzi (Tulahuan-LACZ amstigotes in PEM, Lorente S O et al., Antimicrobial agents and chemotherapy 2004, 48(8): 2937-2950; Buckner et al., Infection and Immunity 1999, 67(1): 403-409; Buckner et al., Antimicrobial Agents and Chemotherapy 1996, 40(11): 2592-2597) • B) Trypanosoma brucei rhodesiense (strain STIB900, Lorente S O et al., Antimicrobial agents and chemotherapy 2004, 48(8): 2937-2950; Habtemariam S, BMC Pharmacology 2003, 3:6) • C) Plasmodium falciparum (strain K1, Korsinczky M et al., Antimicrobial agents and chemotherapy 2000, 44(8): 2100-2108; Thaitong S and Beale G H, Trans. R. Soc. Trop. Med. Hyg. 1981, 75: 271-273; Trager W and Jensen J B, Science 1976, 193: 673-675) • D) Plasmodium faiciparum (strain 3D7, Mu et al., PLoS Biology 2005, 3(10): e335)

[11] = tested on: Enterococcus faecium DSM 20477 (ATCC 19434); assay: Anti-bacterial bouillon microdilution assay (MIC), bacterium C; conditions: Enterococcus faecium DSM 20477, 24 h
Experimental: Selected compounds of the invention were tested in a bouillon microdilution assay method according to the DIN 58940 (www.din.de) guidelines for determination of susceptibility of bacterial strains with regard to cell growth inhibition. The assay method quantifies bacterial cell growth which corresponds to the turbidity of the liquid culture medium by photometric measurement carried out at 595 nm.
The method of MIC determination was performed according to DIN 58940-5. The volumina were adapted according to the microdilution method as described in DIN 58940-7 guideline.
Dependent on water solubility, compounds of the invention were dissolved either in water or ethanol in a concentration of 10 mg/ml. Subsequently, the stock was further diluted in water to a concentration of 512 μg/ml. The following serial dilutions (factor 2) were performed in water resulting in the following […] testing concentrations: 256 μg/ml, 128 μg/ml, 64 μg/ml, 32 μg/ml, 16 μg/ml, 8 μg/ml, 4 μg/ml, 2 μg/ml, 1 μg/ml, 0.5 μg/ml, 0.25 μg/ml and 0.125 μg/ml. Diluted compounds of the invention were transferred in 100 μl volume to the microtiter plate wells. […]
Before and after incubation, bacterial growth was determined by photometric analysis against a positive control containing growing bacteria without compound and a sterile/negative control containing only the medium.

[12] = tested on: Bacteroides fragilis DSM 2151 (ATCC 25285); assay: Anti-bacterial bouillon microdilution assay (MIC), bacterium E; conditions: anaerob, 24 h
Procedure, shortened: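 Broth microdilution MIC per DIN 58940-5/-7. Twofold compound dilutions in water spanned 256 to 0.125 μg/ml in the test concentration series, with inocula of about 1×10^6 organisms/ml in strain-appropriate media. Growth was read as turbidity at 595 nm before and after incubation, against growth and sterile controls.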

CCCCCCCCCCCCCCCCOP(=O)([O-])OCC[N+]1(C)CCCCC1 [Compound 2, Phosphoric acid hexadecyl ester 2-(1-methyl-piperidin-1-yl)-ethyl ester]
MIC, fungus A [1]: 2 µg/mL (≈ 4.47 µM) | MIC, fungus C [2]: 6 µg/mL (≈ 13.4 µM) | MIC, fungus D [3]: 1 µg/mL (≈ 2.23 µM) | MIC, fungus E [4]: 1 µg/mL (≈ 2.23 µM) | MIC, fungus F [5]: 1.5 µg/mL (≈ 3.35 µM) | MIC, fungus G [6]: 2 µg/mL (≈ 4.47 µM) | MIC, fungus H [7]: 1.5 µg/mL (≈ 3.35 µM) | MIC, fungus I [8]: 1 µg/mL (≈ 2.23 µM) | MIC, fungus J [9]: 0.75 µg/mL (≈ 1.68 µM) | ED50 (μg/mL), protozoon B [10]: 17.50 µg/mL (≈ 39.1 µM)

CCCCCCCCCCCCCCCCOP(=O)([O-])OCC[N+](C)(C)C [miltefosine, hexadecylphosphocholine, reference compound]
MIC [11]: 32 µg/mL (≈ 78.5 µM) | MIC [12]: > 256 µg/mL
